The text below walks through data of the NIST ThermoML archive (doi:10.1016/j.jct.2016.07.041).

± gives the expanded uncertainty stated by the source.

The conditions of data set [1]: 101.33 kPa, Liquid; for viscosity: Capillary tube (Ostwald / Ubbelohde) method; for mass density: Vibrating tube method.
Data set [2] can be described thus: xn = mol fraction of the nth substance listed. The following applies: 101 kPa, Liquid, x1 = 1; for viscosity: Capillary tube (Ostwald / Ubbelohde) method; for mass density: Vibrating tube method.

As a reminder, the viscosity is the resistance of a fluid to flow. In general, mass density refers to the mass of a sample divided by its volume. On to `NCCO` [2-aminoethan-1-ol], for which the viscosity in data set [1] (293.15 K) is on record as 23.65 ± 1.4 mPa·s; in data set [1] (303.15 K), 14.75 ± 0.89 mPa·s; in data set [1] (313.15 K), 9.78 ± 0.59 mPa·s; in data set [1] (323.15 K), 6.81 ± 0.41 mPa·s; in data set [1] (333.15 K) it was 4.99 ± 0.3 mPa·s. The mass density in data set [1] (293.15 K) came to 1015.5 ± 1 kg/m3; in data set [1] (303.15 K) it was 1007.6 ± 1 kg/m3; in data set [1] (313.15 K) it was 999.7 ± 1 kg/m3; in data set [1] (323.15 K), 991.7 ± 1 kg/m3; in data set [1] (333.15 K), 983.6 ± 1 kg/m3.

For `CCCCn1cc[n+](C)c1.F[B-](F)(F)F` [1-butyl-3-methylimidazolium tetrafluoroborate], the viscosity was 139.12 ± 8.7 mPa·s in data set [1] (293.15 K); 82.49 ± 5 mPa·s in data set [1] (303.15 K); 52.33 ± 3.1 mPa·s in data set [1] (313.15 K); 35.16 ± 2.1 mPa·s in data set [1] (323.15 K); 24.69 ± 1.5 mPa·s in data set [1] (333.15 K). The mass density in data set [1] (293.15 K) stood at 1205.1 ± 1.2 kg/m3; in data set [1] (303.15 K), 1198 ± 1.2 kg/m3; in data set [1] (313.15 K), 1190.8 ± 1.2 kg/m3; in data set [1] (323.15 K), 1183.7 ± 1.2 kg/m3; in data set [1] (333.15 K), 1176.8 ± 1.2 kg/m3.

With `CCCCn1cc[n+](C)c1.F[B-](F)(F)F` [1-butyl-3-methylimidazolium tetrafluoroborate] + NCCO, the viscosity in data set [2] (293.15 K) was found to be 139.12 ± 8.7 mPa·s; in data set [2] (303.15 K), 82.49 ± 5 mPa·s; in data set [2] (313.15 K) it was 52.33 ± 3.1 mPa·s; in data set [2] (323.15 K) it was 35.16 ± 2.1 mPa·s; in data set [2] (333.15 K), 24.69 ± 1.5 mPa·s. Also, the mass density amounted to 1205.1 ± 1.2 kg/m3 in data set [2] (293.15 K); 1198 ± 1.2 kg/m3 in data set [2] (303.15 K); 1190.8 ± 1.2 kg/m3 in data set [2] (313.15 K); 1183.7 ± 1.2 kg/m3 in data set [2] (323.15 K); 1176.8 ± 1.2 kg/m3 in data set [2] (333.15 K).
